Data reported in the supplement of paper PMC10627819.

Tests used:
Experiment in all cases: fitness (endpoint OD595 vs no drug) (fraction); higher = more growth
B. subtilis 168 = system: B. subtilis 168
In short: (§1)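 Fitness was measured as bacterial growth in 384-well plates inoculated at OD595 0.01 (30 µl, or 55 µl for S. pneumoniae). Media were TSB, LB Lennox or CY, at 37 °C. OD595 was read every 30 min for 14 h and background-subtracted against the first reading. Fitness is OD595 at the transition into stationary phase divided by the robust mean of no-drug control wells, capped at 1.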

S. aureus Newman = system: S. aureus Newman
In short: as §1

S. aureus DSM 20231 = system: S. aureus DSM 20231
In short: as §1

S. pneumoniae D39V = system: S. pneumoniae D39V
In short: as §1
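Also: OD595 on entry to stationary phase over no-drug wells; at most 1.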

N[C@@H]1CONC1=O [Cycloserine D] + CC(C1CCC(C(O1)OC2C(CC(C(C2O)OC3C(C(C(CO3)(C)O)NC)O)N)N)N)NC [Gentamicin]
main component drawn
Details | fitness
B. subtilis 168, first compound 0.125 µg/mL, partner 0.0625 µg/mL | 0.964
B. subtilis 168, first compound 0.125 µg/mL, partner 0.25 µg/mL | 0.102
B. subtilis 168, first compound 0.25 µg/mL, partner 0.0625 µg/mL | 0.943
B. subtilis 168, first compound 0.25 µg/mL, partner 0.25 µg/mL | 0.0775
B. subtilis 168, first compound 0.5 µg/mL, partner 0.0625 µg/mL | 0.914
B. subtilis 168, first compound 0.5 µg/mL, partner 0.25 µg/mL | 0.0653
S. aureus Newman, first compound 0.375 µg/mL, partner 0.375 µg/mL | 0.986
S. aureus Newman, first compound 0.375 µg/mL, partner 0.5 µg/mL | 0.923
S. aureus Newman, first compound 0.375 µg/mL, partner 0.75 µg/mL | 0.974
S. aureus Newman, first compound 0.375 µg/mL, partner 1 µg/mL | ≥ 1
S. aureus Newman, first compound 0.375 µg/mL, partner 1.5 µg/mL | 0.955
S. aureus Newman, first compound 0.375 µg/mL, partner 2 µg/mL | ≥ 1
S. aureus Newman, first compound 0.75 µg/mL, partner 0.375 µg/mL | ≥ 1
S. aureus Newman, first compound 0.75 µg/mL, partner 0.5 µg/mL | 0.921
S. aureus Newman, first compound 0.75 µg/mL, partner 0.75 µg/mL | ≥ 1
S. aureus Newman, first compound 0.75 µg/mL, partner 1 µg/mL | ≥ 1
S. aureus Newman, first compound 0.75 µg/mL, partner 2 µg/mL | ≥ 1
S. aureus Newman, first compound 1.5 µg/mL, partner 0.375 µg/mL | 1
S. aureus Newman, first compound 1.5 µg/mL, partner 0.5 µg/mL | 0.952
S. aureus Newman, first compound 1.5 µg/mL, partner 0.75 µg/mL | ≥ 1
S. aureus Newman, first compound 1.5 µg/mL, partner 1 µg/mL | ≥ 1
S. aureus Newman, first compound 1.5 µg/mL, partner 2 µg/mL | ≥ 1

N[C@@H]1CONC1=O [Cycloserine D] + CCC[C@@H]1C[C@@H](C(=O)N[C@@H]([C@H]2O[C@H](SC)[C@H](O)[C@@H](O)[C@H]2O)[C@@H](C)O)N(C)C1 [Lincomycin]
fitness
Details | first compound 0.125 µg/mL | first compound 0.25 µg/mL | first compound 0.375 µg/mL | first compound 0.5 µg/mL | first compound 0.75 µg/mL | first compound 1.5 µg/mL
B. subtilis 168, partner 0.1 µg/mL | 0.87 | 0.873 | – | 0.911 | – | –
B. subtilis 168, partner 0.2 µg/mL | 0.861 | 0.877 | – | 0.932 | – | –
B. subtilis 168, partner 0.4 µg/mL | 0.868 | 0.906 | – | 0.964 | – | –
S. aureus DSM 20231, partner 0.1 µg/mL | – | – | 0.936 | – | 0.921 | 0.915
S. aureus DSM 20231, partner 0.4 µg/mL | – | – | 0.278 | – | 0.271 | 0.247

fitness, B. subtilis 168, one replicate
Details | first compound 0.125 µg/mL | first compound 0.25 µg/mL | first compound 0.5 µg/mL
partner 0.8 µg/mL | 0.923 | 0.939 | 0.905
partner 1.6 µg/mL | 0.88 | 0.813 | 0.862

N[C@@H]1CONC1=O [Cycloserine D] + CN(C)c1cc(NC(=O)CNC(C)(C)C)c(O)c2c1C[C@H]1C[C@H]3[C@H](N(C)C)C(O)=C(C(N)=O)C(=O)[C@@]3(O)C(O)=C1C2=O [Tigecycline]
fitness
Details | first compound 0.125 µg/mL | first compound 0.25 µg/mL | first compound 0.375 µg/mL | first compound 0.5 µg/mL | first compound 0.75 µg/mL | first compound 1.5 µg/mL
B. subtilis 168, partner 0.039 µg/mL | 0.944 | 0.987 | – | ≥ 1 | – | –
B. subtilis 168, partner 0.078 µg/mL | 0.955 | 0.867 | – | 0.912 | – | –
B. subtilis 168, partner 0.156 µg/mL | 0.914 | 0.911 | – | 0.982 | – | –
S. aureus Newman, partner 0.039 µg/mL | – | – | 0.956 | – | 0.936 | 0.931
S. aureus Newman, partner 0.078 µg/mL | – | – | 0.981 | – | ≥ 1 | 0.994
S. aureus Newman, partner 0.156 µg/mL | – | – | 0.986 | – | 0.983 | 0.971

fitness, B. subtilis 168, one replicate
Details | first compound 0.125 µg/mL | first compound 0.25 µg/mL | first compound 0.5 µg/mL
partner 0.125 µg/mL | ≥ 1 | ≥ 1 | 0.994
partner 0.25 µg/mL | ≥ 1 | 0.97 | 0.922
partner 0.5 µg/mL | 0.944 | 0.94 | ≥ 1

N[C@@H]1CONC1=O [Cycloserine D] + CN[C@@H]1[C@H](O[C@H]2[C@H](O[C@H]3[C@H](O)[C@@H](O)[C@H](N=C(N)N)[C@@H](O)[C@@H]3N=C(N)N)O[C@@H](C)[C@]2(O)C=O)O[C@@H](CO)[C@H](O)[C@H]1O [Streptomycin]
fitness
Details | first compound 0.125 µg/mL | first compound 0.25 µg/mL | first compound 0.375 µg/mL | first compound 0.5 µg/mL | first compound 0.75 µg/mL | first compound 1.5 µg/mL
B. subtilis 168, partner 2 µg/mL | 0.931 | 0.937 | – | 0.982 | – | –
B. subtilis 168, partner 8 µg/mL | 0.0826 | 0.0554 | – | 0.074 | – | –
S. aureus Newman, partner 1 µg/mL | – | – | 0.984 | – | 0.985 | 0.978
S. aureus Newman, partner 2 µg/mL | – | – | 0.976 | – | 0.93 | 0.941

N[C@@H]1CONC1=O [Cycloserine D] + COc1cc(Cc2cnc(N)nc2N)cc(OC)c1OC [Trimethoprim]
fitness, B. subtilis 168, one replicate
Details | partner 0.1 µg/mL | partner 0.2 µg/mL | partner 0.4 µg/mL | partner 1 µg/mL | partner 2 µg/mL
first compound 0.125 µg/mL | 0.917 | 0.789 | 0.584 | 0.344 | 0.268
first compound 0.25 µg/mL | 0.849 | 0.757 | 0.56 | 0.323 | 0.243
first compound 0.5 µg/mL | 0.986 | 0.818 | 0.533 | 0.358 | 0.234

fitness
Details | partner 0.125 µg/mL | partner 0.25 µg/mL | partner 0.5 µg/mL | partner 1 µg/mL
B. subtilis 168, first compound 0.125 µg/mL | 0.635 | 0.501 | 0.475 | –
B. subtilis 168, first compound 0.25 µg/mL | 0.664 | – | 0.48 | –
B. subtilis 168, first compound 0.5 µg/mL | 0.664 | – | 0.511 | –
S. aureus DSM 20231, first compound 0.375 µg/mL | 0.758 | – | – | 0.0316
S. aureus DSM 20231, first compound 0.75 µg/mL | 0.807 | 0.61 | – | 0.0296
S. aureus DSM 20231, first compound 1.5 µg/mL | 0.804 | 0.569 | – | 0.0385

O=C(O[C@@H]1Cc2c(O)cc(O)cc2O[C@@H]1c1cc(O)c(O)c(O)c1)c1cc(O)c(O)c(O)c1 [EGCG] + CC1(C)S[C@@H]2[C@H](NC(=O)Cc3ccccc3)C(=O)N2[C@H]1C(=O)O [Penicillin G]
fitness, S. aureus Newman
Details | first compound 12.5 µg/mL | first compound 25 µg/mL | first compound 50 µg/mL
partner 0.0195 µg/mL | 0.738 | 0.623 | –
partner 0.039 µg/mL | 0.743 | 0.739 | 0.594
partner 0.078 µg/mL | 0.741 | 0.729 | 0.644

O=C(O[C@@H]1Cc2c(O)cc(O)cc2O[C@@H]1c1cc(O)c(O)c(O)c1)c1cc(O)c(O)c(O)c1 [EGCG] + CC1=C(C(=O)O)N2C(=O)[C@@H](NC(=O)[C@H](N)c3ccccc3)[C@H]2SC1 [Cephalexin]
fitness
Details | first compound 6.25 µg/mL | first compound 12.5 µg/mL | first compound 25 µg/mL | first compound 50 µg/mL
B. subtilis 168, partner 0.125 µg/mL | 0.875 | 0.51 | 0.222 | –
B. subtilis 168, partner 0.25 µg/mL | 0.988 | – | – | –
B. subtilis 168, partner 0.5 µg/mL | 0.919 | – | – | –
S. aureus Newman, partner 0.25 µg/mL | – | 0.737 | 0.682 | 0.775
S. aureus Newman, partner 0.5 µg/mL | – | 0.776 | 0.762 | 0.739
S. aureus Newman, partner 1 µg/mL | – | 0.796 | 0.806 | 0.79
S. pneumoniae D39V, partner 1 µg/mL | – | 0.669 | 0.72 | –
S. pneumoniae D39V, partner 2 µg/mL | – | 0.0733 | 0.2 | 0.111
S. pneumoniae D39V, partner 4 µg/mL | – | 0.0244 | 0.0566 | 0.0515

fitness, one replicate
Details | first compound 6.25 µg/mL | first compound 12.5 µg/mL | first compound 25 µg/mL | first compound 50 µg/mL
B. subtilis 168, partner 1 µg/mL | 0.993 | 0.862 | 0.697 | –
S. pneumoniae D39V, partner 0.125 µg/mL | – | 0.926 | 0.96 | ≥ 1
S. pneumoniae D39V, partner 0.25 µg/mL | – | 0.902 | 0.919 | 0.937
S. pneumoniae D39V, partner 0.5 µg/mL | – | 0.932 | 0.98 | 0.957
